Consider 2 molecules from patent publication US9415039B2, “Disubstituted 3,4-diamino-3-cyclobutene-1,2-dione compounds for use in the treatment of chemokine-mediated diseases” (GALDERMA RESEARCH & DEVELOPMENT, priority 2011, dated 2016).

For data set [1], the target named is T1, CXCR2 receptor (Homo sapiens, UniProt P25025).
T1 construct: β-galactosidase enzyme-complementation fragment (PathHunter system); host or cells: HEK293
T1 sequence (P25025 1-360): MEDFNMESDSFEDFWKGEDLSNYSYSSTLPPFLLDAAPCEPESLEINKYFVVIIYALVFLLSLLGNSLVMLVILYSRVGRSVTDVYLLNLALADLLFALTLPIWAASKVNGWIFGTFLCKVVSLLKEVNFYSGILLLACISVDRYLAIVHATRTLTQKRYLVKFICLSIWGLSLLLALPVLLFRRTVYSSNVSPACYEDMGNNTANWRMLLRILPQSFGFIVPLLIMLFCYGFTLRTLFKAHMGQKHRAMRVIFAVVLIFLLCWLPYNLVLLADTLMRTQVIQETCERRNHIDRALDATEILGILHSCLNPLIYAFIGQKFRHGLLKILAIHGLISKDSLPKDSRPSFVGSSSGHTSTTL
As to the kind of experiment: β-arrestin 2 recruitment test after CXCL8 activation, PathHunter HEK293-CXCR2 cells. In kind it is cell-based. As to conditions: stimulation with CXCL8 (10 nM), read-out: CXCR2 (nM), IC50 = half inhibition concentration. As to the method: (§1) The in vitro affinity of the compounds of the present invention for the CXCR1 and CXCR2 receptors was determined on a functional test of the β-arrestin recruitment after receptor activation type.
(§2) In order to evaluate the direct interaction of the CXCR2 or CXCR1 receptor with β-arrestin 2, a β-arrestin 2 recruitment test for CXCR2 or CXCR1 based on β-galactosidase enzyme complementation (Olson K R, Eglen R M. Beta galactosidase complementation: a cell-based luminescent assay platform for drug discovery. Assay Drug Dev Technol. 2007 February; 5(1); 137-44), as established by DiscoveRx Corporation was used. The stimulation of these two cell lines with CXCL8 (10 nM) induces β-arrestin 2 recruitment, as indicated by a significant increase in the induction factor. […]
(§3) “PathHunter HEK293-CXCR2” or “U2OS hCXCR1 β-arrestin” cells (DiscoveRx Corporation) were seeded overnight at 10 000 cells/well (384-well format) in 20 μl of Opti MEM I medium. […] After incubation for 60 min at ambient temperature, the […] during the β-arrestin-CXCR2 interaction was measured for 0.3 s in an Envision 2102 Multilabel Reader (PerkinElmer Life and Analytical Sciences). The data were analyzed by means of a non-linear curve procedure using the XLFit4 exploitation software (IDBS) and the IC50 values were determined.

In data set [2] the target is T2, CXCR1 receptor (Homo sapiens, UniProt P25024).
T2 construct: β-galactosidase enzyme-complementation fragment (PathHunter system); host or cells: U2OS
T2 sequence (P25024 1-350): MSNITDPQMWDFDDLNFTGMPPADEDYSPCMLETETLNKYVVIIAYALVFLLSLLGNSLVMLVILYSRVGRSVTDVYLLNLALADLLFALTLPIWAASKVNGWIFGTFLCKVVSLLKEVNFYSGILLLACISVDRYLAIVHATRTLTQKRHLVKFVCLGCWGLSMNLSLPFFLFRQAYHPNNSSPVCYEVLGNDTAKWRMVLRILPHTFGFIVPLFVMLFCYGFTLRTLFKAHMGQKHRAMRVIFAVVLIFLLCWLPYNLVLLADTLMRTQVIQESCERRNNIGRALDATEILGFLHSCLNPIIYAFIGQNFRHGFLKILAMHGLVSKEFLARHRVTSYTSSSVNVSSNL
Nature of the data set: β-arrestin 2 recruitment test after CXCL8 activation, U2OS hCXCR1 β-arrestin cells. In kind it is cell-based. The conditions noted are these: stimulation with CXCL8 (10 nM), read-out: CXCR1 (nM), IC50 = half inhibition concentration. On the procedure: as §1, §2, §3

As to `Cc1ccc(C(Nc2c(Nc3cccc(C(=O)N(C)C)c3O)c(=O)c2=O)C2CCOCC2)o1` (stereo not drawn) [Example 1, 2-hydroxy-N,N-dimethyl-3-(2-{[(5-methylfuran-2-yl)-(tetrahydropyran-4-yl)methyl]amino}-3,4-dioxocyclobut-1-enylamino)benzamide], the melting point (in general, the temperature of the solid-liquid transition) was in the range of 137 to 140 °C. In data set [1], the IC50 is 212 nM. In addition, the IC50 in data set [2] amounted to 5440 nM.

`Cc1ccc(C(Nc2c(Nc3cccc(C(=O)N(C)C)c3O)c(=O)c2=O)C2CCSCC2)o1` (stereo not drawn) [Example 2, 2-hydroxy-N,N-dimethyl-3-(2-{[(5-methylfuran-2-yl)-(tetrahydrothiopyran-4-yl)methyl]amino}-3,4-dioxocyclobut-1-enylamino)benzamide]: the melting point fell in the range of 173 to 175 °C. Moreover, the IC50 in data set [1] amounted to 111 nM. Further, in data set [2], the IC50 amounted to 3390 nM.
